Experimental data published in patent US20240083875A1, “DIHYDROISOQUINOLINYL DERIVATIVES” (UCB BIOPHARMA SRL, priority 2020, published 2024).

Tests used:
[1] = biological target: T1, human GABAA receptor α1, β2 and γ2 subunits (Homo sapiens, UniProt P14867+P18507+P47870); test: Automated patch clamp studies on the GABAA receptor (IonFlux HT); format: cell-based; settings: 10 μM compound; 15 μM GABA as agonist; CHO-K1 cells expressing human GABAA α1β2γ2
T1 construct: expressed in transfected cells
T1 sequence (P14867 28-456): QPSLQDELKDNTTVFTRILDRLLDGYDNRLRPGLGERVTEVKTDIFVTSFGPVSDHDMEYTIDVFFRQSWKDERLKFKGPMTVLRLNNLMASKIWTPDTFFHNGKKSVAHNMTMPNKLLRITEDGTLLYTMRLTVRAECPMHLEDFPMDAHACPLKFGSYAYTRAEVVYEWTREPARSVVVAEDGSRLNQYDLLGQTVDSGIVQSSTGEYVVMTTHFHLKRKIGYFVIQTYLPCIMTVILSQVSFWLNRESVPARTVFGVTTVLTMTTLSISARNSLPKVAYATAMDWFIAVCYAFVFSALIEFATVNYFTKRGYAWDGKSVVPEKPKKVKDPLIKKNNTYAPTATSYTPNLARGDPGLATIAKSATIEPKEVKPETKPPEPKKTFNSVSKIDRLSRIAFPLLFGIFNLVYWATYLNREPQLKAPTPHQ
T1 sequence (P47870 25-512 limits assumed): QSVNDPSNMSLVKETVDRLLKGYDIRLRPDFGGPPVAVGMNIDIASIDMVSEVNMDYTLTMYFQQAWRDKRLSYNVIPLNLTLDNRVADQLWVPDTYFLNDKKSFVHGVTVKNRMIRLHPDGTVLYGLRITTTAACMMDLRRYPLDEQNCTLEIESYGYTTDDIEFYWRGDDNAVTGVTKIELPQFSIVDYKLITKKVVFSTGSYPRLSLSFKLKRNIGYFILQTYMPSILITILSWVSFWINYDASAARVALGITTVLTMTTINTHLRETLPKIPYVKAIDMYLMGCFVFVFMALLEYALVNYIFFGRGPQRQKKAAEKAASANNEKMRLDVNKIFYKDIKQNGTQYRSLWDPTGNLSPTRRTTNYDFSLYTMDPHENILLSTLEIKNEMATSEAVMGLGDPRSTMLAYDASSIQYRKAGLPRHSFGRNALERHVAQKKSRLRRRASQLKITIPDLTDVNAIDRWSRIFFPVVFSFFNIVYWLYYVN
T1 sequence (P18507 40-475): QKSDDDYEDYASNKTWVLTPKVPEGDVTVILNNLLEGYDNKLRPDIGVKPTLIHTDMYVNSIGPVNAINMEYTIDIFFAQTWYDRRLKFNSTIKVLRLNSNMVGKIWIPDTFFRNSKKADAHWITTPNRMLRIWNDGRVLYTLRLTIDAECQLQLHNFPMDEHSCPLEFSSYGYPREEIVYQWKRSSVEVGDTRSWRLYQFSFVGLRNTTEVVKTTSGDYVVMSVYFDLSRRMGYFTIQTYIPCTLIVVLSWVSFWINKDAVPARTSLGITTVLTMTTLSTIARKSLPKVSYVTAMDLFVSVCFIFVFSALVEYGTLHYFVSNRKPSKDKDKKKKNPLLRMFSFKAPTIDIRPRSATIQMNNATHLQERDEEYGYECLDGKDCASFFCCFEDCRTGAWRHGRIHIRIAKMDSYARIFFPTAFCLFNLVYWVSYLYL
Procedure: CHO-K1 cells stably expressing human GABAA receptor α1, β2 and γ2 subunits were used. The cells were harvested using trypsin and maintained in serum-free medium at room temperature. The cells were washed and re-suspended in extracellular solution before testing.
Experiments on human GABAA (α1β2γ2) channels were conducted using an automated patch clamp assay (IonFlux™ HT). Compounds were tested at 3 concentrations (0.1, 1, and 10 μM) in 3 to 4 cells. The external solution for recording GABAA currents was composed of sodium chloride 137 mM, potassium chloride 4 mM, calcium chloride 1.8 mM, magnesium chloride 1 mM, HEPES 10 mM, and glucose 10 mM. Both external and internal solutions were titrated with NaOH or KOH to obtain a pH of 7.35 or 7.3, respectively. The internal pipette solution contained potassium fluoride 70 mM, potassium chloride 60 mM, sodium chloride 70 mM, HEPES 5 mM, EGTA 5 mM, and Magnesium ATP 4 mM. The final concentration of vehicle used to dilute compounds was 0.33% DMSO in each well. Bicuculline (0.032 to 100 μM) was used as positive control inhibitor. GABA (15 μM) was used as agonist. All recordings were obtained from a holding potential of −60 mV.
The compound addition sequence was the following: one addition of the EC80 concentration of GABA was added to establish baseline response. Each concentration of compound was applied for 30 seconds followed by the addition of 15 μM GABA in the presence of the compound for 2 seconds. The process was repeated with the next ascending concentration of compound. Peak inward currents in response to the GABA additions in the presence of a single concentration of compound were measured. All compound data have been normalized to the baseline peak current induced by addition of 15 μM GABA for 2 seconds.

dopamine D1 receptor = biological target: T2, dopamine D1 receptor (Homo sapiens, UniProt P21728); test: cAMP HTRF potentiation assay (PAM, in the presence of EC20 dopamine); format: cell-based; settings: for Erel (%): maximal % potentiation relative to dopamine maximal response (100%), EC20 dopamine, LMtk cells expressing D1 receptor; for EC50: potentiation of cAMP levels with EC20 dopamine (1.1 nM), LMtk mouse fibroblast cells expressing D1 receptor
T2 construct: host or cells: LMtk (Ltk-) mouse fibroblast cells
T2 sequence (P21728 whole entry): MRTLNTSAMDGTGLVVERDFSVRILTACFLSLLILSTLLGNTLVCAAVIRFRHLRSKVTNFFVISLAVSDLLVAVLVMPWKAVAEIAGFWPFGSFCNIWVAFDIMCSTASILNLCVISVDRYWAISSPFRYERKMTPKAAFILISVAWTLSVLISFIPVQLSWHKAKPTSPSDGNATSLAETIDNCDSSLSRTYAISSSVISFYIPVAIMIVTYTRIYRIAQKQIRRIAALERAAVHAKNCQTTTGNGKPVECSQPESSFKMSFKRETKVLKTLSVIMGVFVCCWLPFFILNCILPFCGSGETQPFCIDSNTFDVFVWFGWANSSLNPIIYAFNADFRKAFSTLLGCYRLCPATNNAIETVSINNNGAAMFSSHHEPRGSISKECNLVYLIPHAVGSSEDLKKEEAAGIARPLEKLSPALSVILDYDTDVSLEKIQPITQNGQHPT
Procedure: The potentiation assay measures the ability of compounds to increase the levels of cAMP produced by a low-threshold concentration of dopamine. The concentration of dopamine used ([EC20]) is designed to produce 20% stimulation compared to the maximal response (100%) seen with increasing the concentration of dopamine. To measure this potentiation increasing concentrations of the compound with the [EC20] of dopamine are incubated and the potentiation is measured as increases in cAMP production and concentration of compound which produces 50% of the potentiation of the cAMP levels is measured.
Cells were cultured at 37° C. in a humidified atmosphere of 5% CO2. Cells were grown in DMEM-F12+GlutaMAX™-I medium (GIBCO®, Invitrogen, Merelbeke, Belgium) containing 10% fetal bovine serum (BioWhittaker®, Lonza, Verviers, Belgium), 400 μg/mL Geneticin (GIBCO®), 100 IU/mL Penicillin and 100 IU/mL Streptomycin (Pen-Strep solution, BioWhittaker®).
The measurement of changes in intracellular cyclic adenosinemonophopshpate (cAMP) was determined using the HTRF cAMP dynamic assay kit from CisBio (Codolet, France). Using homogenous time-resolved fluoresence technology, the assay is based on competition between native cAMP produced by cells and cAMP labelled with the dye d2. The tracer binding is determined by an anti-cAMP antibody labeled with cryptate. The effects of the compound alone (agonism) was determined by performing the assay in the absence of dopamine, whilst the effect of the compound as a positive allosteric modulator (PAM) was determined in the presence of an EC20 concentration of dopamine. Cells (20,000 per well) are incubated in 384 plates for 1 hour at room temperature in a final volume of 20 μLHBSS (Lonza, with calcium, magnesium and HEPES buffer 20 mM, pH 7.4) containing: isobutyl methylxanthine (Sigma, 0.1 mM final), varying concentrations of test compound (typically 10^−9.5M to […]) in the presence and absence of dopamine (1.1 nM final). The reaction is then terminated and the cells lysed by adding the d2 detection reagent in lysis buffer (10 microL) and the cryptate reagent in lysis buffer (10 microl) according to manufacturer's instructions. This is then incubated for a further 60 min at room temperature and changes in HTRF fluorescent emission ratio determined according to manufacturer's instructions using an Envision plate reader (Perkin Elmer, Zaventem, Belgium) with laser excitation. All incubations were performed in duplicate and results were compared to a concentration-effect curve to dopamine. (10^−11 M to 10^−6 M).
Data was analyzed using Excel and PRISM (GraphPad Software) to obtain pEC50 and Erel using the 4-parameter logistic equation (DeLean et al, 1978) where Erel is the fitted maximal response of the test compound minus basal expressed as a percentage relative to that obtained with dopamine which was defined as 100%.
The pEC50 of a compound is the −log10 of the concentration of the compound which produces 50% of the potentiation of the cAMP levels.
The Erel is the relative efficacy, defined as the maximal % potentiation produced by the compound compared to the maximal response produced by increasing concentrations of dopamine (Erel of 1=dopamine maximum response), has been measured.

Row | inhibition at 10 µM [1] [%] | Erel (%) (dopamine D1 receptor) | EC50 (dopamine D1 receptor) [nM] | Structure (SMILES)
1 | 10.1 | 63 | 7.94 | C[C@H]1c2cccc(-c3cnn(C)c3)c2C[C@H](CO)N1C(=O)Cc1c(Cl)ccc2[nH]nc(Cl)c12 [Example 4, 2-(3,5-dichloro-1H-indazol-4-yl)-1-[(1S,3R)-3-(hydroxymethyl)-1-methyl-5-(1-methylpyrazol-4-yl)-3,4-dihydro-1H-isoquinolin-2-yl]ethanone]
2 | 0 | 71 | 6.31 | C[C@H]1c2cccc(-c3cn[nH]c3)c2C[C@H](CO)N1C(=O)Cc1c(Cl)ccc2c1c(Cl)nn2C [Example 2, 2-(3,5-dichloro-1-methyl-indazol-4-yl)-1-[(1S,3R)-3-(hydroxymethyl)-1-methyl-5-(1H-pyrazol-4-yl)-3,4-dihydro-1H-isoquinolin-2-yl]ethanone]
3 | 7.8 | 61 | 6.31 | C[C@H]1c2cccc(-c3cn[nH]c3)c2C[C@H](CO)N1C(=O)Cc1c(Cl)ccc2[nH]nc(Cl)c12 [Example 3, 2-(3,5-dichloro-1H-indazol-4-yl)-1-[(1S,3R)-3-(hydroxymethyl)-1-methyl-5-(1H-pyrazol-4-yl)-3,4-dihydro-1H-isoquinolin-2-yl]ethanone]
4 | 2.7 | 74 | 12.6 | C[C@H]1c2cccc(-c3cnn(C)c3)c2C[C@H](CO)N1C(=O)Cc1c(Cl)ccc2c1c(Cl)nn2C [Example 1, 2-(3,5-dichloro-1-methyl-indazol-4-yl)-1-[(1S,3R)-3-(hydroxymethyl)-1-methyl-5-(1-methylpyrazol-4-yl)-3,4-dihydro-1H-isoquinolin-2-yl]ethanone]
